# Experimental data taken from ChEMBL document CHEMBL1201862, “PubChem BioAssay data set” (2004).
# Values joined by “and” are separate entries in the source; they are usually repeats but may differ in a detail not shown here. Identical values can stand only once. Counter-ions that a name gives are not always drawn. Active and inactive are the calls of the source.
# Assays:
# [1] = target: T1, High affinity choline transporter 1 (Homo sapiens, UniProt Q9GZV3); assay: CHT inhibitors, dose response, cell-based, 5-point CRC, membrane potential dye (AID 504840); type: functional
# T1 sequence (Q9GZV3 whole entry): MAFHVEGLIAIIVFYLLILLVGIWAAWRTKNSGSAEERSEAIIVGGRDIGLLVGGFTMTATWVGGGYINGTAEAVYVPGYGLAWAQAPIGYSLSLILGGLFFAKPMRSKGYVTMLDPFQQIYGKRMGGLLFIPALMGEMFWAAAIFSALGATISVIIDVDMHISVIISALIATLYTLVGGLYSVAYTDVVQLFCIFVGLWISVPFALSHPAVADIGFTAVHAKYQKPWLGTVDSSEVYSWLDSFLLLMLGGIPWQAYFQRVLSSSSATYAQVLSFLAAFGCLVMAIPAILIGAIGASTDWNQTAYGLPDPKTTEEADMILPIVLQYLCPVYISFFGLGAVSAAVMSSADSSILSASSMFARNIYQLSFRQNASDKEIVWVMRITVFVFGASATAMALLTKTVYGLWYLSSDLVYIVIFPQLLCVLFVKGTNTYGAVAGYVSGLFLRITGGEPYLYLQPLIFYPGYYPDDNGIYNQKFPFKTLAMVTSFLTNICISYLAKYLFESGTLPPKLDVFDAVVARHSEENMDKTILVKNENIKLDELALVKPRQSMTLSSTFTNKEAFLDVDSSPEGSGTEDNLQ
# Cytochrome P450 2C19 = Cytochrome P450 2C19 (Homo sapiens, UniProt P33261); assay: Cytochrome panel assay with activity outcomes. Panel member name: p450-cyp2c19 Compounds with AC50 equal or less than 10 uM are considered active; type: functional; conditions: read-out: AC50
# Cytochrome P450 2C9 = Cytochrome P450 2C9 (Homo sapiens, UniProt P11712)
# Cytochrome P450 2D6 = Cytochrome P450 2D6 (Homo sapiens, UniProt P10635);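 note: CYP2D6 member of a cytochrome P450 panel assay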
# Cytochrome P450 1A2 = target: T2, Cytochrome P450 1A2 (Homo sapiens, UniProt P05177);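 note: PubChem cytochrome P450 panel assay, CYP1A2 panel member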
# T2 sequence (P05177 whole entry): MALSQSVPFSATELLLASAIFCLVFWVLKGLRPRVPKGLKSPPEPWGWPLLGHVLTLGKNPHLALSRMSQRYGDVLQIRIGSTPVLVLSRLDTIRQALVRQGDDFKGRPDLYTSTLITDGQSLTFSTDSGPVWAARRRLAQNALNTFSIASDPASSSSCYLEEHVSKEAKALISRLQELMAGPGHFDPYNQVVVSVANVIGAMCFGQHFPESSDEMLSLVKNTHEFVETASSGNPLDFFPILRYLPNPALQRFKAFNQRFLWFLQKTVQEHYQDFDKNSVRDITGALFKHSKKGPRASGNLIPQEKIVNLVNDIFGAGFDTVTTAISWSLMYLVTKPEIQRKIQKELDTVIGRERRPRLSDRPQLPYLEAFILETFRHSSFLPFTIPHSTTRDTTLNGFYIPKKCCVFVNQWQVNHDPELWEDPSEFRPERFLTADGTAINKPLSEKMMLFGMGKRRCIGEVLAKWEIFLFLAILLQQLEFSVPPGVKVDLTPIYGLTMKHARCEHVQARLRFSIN
# [2] = target: T3, Polyadenylate-binding protein 1 (Homo sapiens, UniProt P11940); assay: PABP1 MLLE–PAM2 interaction inhibitors, dose response, miRNA deadenylation inhibitor project, biochemical, fluorescence polarization, Cy5-PAM2 peptide, secondary (AID 602260); type: functional; conditions: read-out: IC50_Mean
# [3] = target: T3, Polyadenylate-binding protein 1; assay: PABP1 MLLE–PAM2 binding inhibitor potency, dose response, biochemical, fluorescence polarization, FITC-PAM2 peptide (AID 602259); type: functional; conditions: read-out: IC50_Mean
# Cytochrome P450 3A4 = Cytochrome P450 3A4 (Homo sapiens, UniProt P08684);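 note: CYP3A4 tested as one member of a cytochrome P450 panel screen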
# [4] = Luminescence Cell-Based Dose Response HTS to Identify Activators of Luciferase Translation or Activity in H4 […] Cells. [Related pubchem assays: 1829 (Project Summary), 1814 (Primary HTS)]; type: functional
# [5] = Luminescence Cell-Based Dose Confirmation HTS to Identify Activators of 5'UTR Stem-Loop Driven Alpha-Synuclein mRNA Translation in H4 Neuroglioblastoma Cells. [Related pubchem assays: 1829 (Project Summary), 1814 (Primary HTS)]; type: functional
# H4 = assay: Luminescence Cell-Based Dose Response HTS to Identify Activators of 5'UTR Stem-Loop Driven Prion Protein mRNA Translation in H4 Neuroglioblastoma Cells. [Related pubchem assays: 1829 (Project Summary), 1814 (Primary HTS)]; type: functional; conditions: Homo sapiens
# Fatty acid synthase [6] = target: T4, Fatty acid synthase (Homo sapiens, UniProt P49327); assay: FAS thioesterase domain inhibitors, dose response, biochemical, kinetic fluorescence intensity (AID 624326); type: functional;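 note: rate of fluorescence rise from hydrolysis of a fluorogenic O-methyl fluorescein ester substrate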
# Fatty acid synthase [7] = target: T4, Fatty acid synthase; assay: FAS thioesterase domain inhibitors, dose response, biochemical, endpoint fluorescence intensity, uHTS hits (AID 624327); type: functional;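 note: fluorescence from hydrolysis of an O-methyl fluorescein acyl ester substrate by the enzyme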
# P388/ADR = assay: cells; type: functional; conditions: Mus musculus
# SN12K1 = assay: cells; type: functional; conditions: Homo sapiens
# P388 = assay: cells; type: functional; conditions: Mus musculus
# Paired box protein Pax-8 = Paired box protein Pax-8 (Homo sapiens, UniProt Q06710); assay: inhibitors of PAX8-driven TPO luciferase reporter, dose response, RMG-I cells, cherry-pick (AID 687027); type: functional, cell-based;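 note: luciferase reporter driven by Pax8 target thyroperoxidase promoter measured by SteadyGlo luminescence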
# Chain of Paired box protein Pax-8 (Q06710 whole entry): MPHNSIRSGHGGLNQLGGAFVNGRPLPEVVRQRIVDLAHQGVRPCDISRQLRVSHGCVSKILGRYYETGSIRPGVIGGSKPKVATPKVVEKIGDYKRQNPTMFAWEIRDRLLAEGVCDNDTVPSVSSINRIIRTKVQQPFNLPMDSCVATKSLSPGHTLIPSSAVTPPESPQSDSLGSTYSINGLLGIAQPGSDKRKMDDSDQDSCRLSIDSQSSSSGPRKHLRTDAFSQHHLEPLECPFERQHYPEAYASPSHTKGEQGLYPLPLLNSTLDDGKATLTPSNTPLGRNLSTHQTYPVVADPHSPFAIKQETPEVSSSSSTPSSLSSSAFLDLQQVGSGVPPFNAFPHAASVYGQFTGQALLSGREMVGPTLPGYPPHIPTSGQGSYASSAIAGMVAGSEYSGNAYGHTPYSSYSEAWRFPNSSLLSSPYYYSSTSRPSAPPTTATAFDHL
# T4 sequence (P49327 whole entry, the tested form may be a part): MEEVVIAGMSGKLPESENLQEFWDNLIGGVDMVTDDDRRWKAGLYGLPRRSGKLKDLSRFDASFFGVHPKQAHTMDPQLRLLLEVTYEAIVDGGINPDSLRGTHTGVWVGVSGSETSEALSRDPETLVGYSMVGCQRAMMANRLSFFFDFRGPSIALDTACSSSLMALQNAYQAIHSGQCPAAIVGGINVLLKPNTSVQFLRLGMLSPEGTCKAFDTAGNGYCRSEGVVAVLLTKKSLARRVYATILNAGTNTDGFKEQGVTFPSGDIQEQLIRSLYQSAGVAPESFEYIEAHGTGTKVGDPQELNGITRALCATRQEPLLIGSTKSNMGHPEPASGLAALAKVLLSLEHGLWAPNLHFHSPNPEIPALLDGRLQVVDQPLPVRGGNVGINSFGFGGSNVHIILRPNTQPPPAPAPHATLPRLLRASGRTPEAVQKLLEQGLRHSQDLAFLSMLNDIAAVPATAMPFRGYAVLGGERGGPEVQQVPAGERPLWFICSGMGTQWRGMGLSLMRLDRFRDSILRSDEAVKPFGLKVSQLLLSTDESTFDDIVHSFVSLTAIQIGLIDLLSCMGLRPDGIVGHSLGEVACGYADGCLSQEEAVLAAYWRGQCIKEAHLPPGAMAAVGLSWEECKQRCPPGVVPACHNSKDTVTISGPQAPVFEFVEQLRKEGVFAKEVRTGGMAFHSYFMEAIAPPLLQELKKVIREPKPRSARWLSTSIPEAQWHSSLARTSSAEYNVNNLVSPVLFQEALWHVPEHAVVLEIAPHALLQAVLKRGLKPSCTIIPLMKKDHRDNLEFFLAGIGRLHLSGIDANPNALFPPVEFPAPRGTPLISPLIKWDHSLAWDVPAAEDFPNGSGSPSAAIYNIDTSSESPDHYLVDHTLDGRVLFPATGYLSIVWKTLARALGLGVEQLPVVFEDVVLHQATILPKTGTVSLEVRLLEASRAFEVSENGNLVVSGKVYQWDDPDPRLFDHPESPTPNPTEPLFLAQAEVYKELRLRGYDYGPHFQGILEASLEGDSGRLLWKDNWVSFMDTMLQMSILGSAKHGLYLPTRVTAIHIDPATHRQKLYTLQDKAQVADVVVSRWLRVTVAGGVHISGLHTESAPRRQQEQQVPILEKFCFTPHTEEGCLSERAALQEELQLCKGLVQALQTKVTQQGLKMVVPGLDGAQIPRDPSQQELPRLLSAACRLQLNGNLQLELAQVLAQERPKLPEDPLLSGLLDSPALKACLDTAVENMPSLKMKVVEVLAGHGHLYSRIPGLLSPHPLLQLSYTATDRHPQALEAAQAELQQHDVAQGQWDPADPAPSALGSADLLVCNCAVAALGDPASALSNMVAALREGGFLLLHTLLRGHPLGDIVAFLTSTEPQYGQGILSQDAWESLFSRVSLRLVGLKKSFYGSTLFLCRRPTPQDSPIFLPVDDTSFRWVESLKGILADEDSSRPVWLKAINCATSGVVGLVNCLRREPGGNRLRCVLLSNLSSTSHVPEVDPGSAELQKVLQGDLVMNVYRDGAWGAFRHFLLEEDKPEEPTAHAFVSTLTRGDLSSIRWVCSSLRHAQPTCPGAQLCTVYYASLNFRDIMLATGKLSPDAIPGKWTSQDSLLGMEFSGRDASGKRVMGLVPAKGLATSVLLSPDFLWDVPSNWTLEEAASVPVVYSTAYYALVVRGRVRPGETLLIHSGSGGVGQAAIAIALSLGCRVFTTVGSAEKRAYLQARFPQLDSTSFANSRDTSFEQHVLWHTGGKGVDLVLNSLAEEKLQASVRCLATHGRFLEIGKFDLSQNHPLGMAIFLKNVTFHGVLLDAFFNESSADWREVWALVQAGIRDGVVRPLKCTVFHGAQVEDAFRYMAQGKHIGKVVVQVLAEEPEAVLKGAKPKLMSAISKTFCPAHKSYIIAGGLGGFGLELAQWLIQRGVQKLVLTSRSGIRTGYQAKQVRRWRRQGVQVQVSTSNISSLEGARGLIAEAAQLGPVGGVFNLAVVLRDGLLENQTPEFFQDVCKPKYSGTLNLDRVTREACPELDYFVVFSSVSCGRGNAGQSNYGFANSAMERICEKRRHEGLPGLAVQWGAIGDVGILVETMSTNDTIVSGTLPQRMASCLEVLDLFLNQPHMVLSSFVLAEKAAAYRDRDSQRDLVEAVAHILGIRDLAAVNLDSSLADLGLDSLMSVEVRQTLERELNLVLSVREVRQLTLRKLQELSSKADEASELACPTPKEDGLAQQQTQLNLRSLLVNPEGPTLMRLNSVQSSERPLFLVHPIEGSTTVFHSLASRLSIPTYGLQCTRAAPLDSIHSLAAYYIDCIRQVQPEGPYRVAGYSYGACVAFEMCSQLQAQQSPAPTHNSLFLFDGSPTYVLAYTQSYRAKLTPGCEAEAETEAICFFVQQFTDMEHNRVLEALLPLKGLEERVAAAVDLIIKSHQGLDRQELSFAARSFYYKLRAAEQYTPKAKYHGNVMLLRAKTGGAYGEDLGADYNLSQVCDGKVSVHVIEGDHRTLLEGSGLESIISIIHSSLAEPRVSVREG
# Chain of Cytochrome P450 2D6 (P10635 whole entry): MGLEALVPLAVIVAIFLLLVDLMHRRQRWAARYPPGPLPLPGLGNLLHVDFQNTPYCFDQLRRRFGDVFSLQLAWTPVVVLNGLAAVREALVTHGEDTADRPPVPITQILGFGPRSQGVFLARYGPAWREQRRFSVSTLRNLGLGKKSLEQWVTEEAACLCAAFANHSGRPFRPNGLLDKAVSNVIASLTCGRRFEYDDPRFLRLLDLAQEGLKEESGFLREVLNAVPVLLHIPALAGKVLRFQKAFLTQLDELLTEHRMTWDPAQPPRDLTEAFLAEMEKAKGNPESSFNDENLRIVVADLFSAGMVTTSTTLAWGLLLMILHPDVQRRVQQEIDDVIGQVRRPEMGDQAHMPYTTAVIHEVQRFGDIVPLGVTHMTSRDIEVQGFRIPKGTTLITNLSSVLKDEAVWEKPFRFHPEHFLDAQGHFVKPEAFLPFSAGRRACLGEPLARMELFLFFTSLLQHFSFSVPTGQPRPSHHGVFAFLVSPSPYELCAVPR
# Chain of Cytochrome P450 3A4 (P08684 whole entry): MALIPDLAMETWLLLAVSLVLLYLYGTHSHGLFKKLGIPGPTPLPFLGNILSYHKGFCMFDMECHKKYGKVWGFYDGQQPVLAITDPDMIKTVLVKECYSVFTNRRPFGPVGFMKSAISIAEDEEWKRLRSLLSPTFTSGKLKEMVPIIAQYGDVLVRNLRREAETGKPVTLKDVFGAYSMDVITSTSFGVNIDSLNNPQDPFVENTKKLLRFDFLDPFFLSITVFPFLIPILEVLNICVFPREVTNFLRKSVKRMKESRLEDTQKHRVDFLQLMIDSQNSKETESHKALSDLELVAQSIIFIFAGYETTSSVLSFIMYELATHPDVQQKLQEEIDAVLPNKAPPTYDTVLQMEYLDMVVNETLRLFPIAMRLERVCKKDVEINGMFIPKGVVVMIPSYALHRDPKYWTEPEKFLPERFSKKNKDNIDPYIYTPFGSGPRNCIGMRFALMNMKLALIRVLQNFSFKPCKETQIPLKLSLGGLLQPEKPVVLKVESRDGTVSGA
# T3 sequence (P11940 whole entry): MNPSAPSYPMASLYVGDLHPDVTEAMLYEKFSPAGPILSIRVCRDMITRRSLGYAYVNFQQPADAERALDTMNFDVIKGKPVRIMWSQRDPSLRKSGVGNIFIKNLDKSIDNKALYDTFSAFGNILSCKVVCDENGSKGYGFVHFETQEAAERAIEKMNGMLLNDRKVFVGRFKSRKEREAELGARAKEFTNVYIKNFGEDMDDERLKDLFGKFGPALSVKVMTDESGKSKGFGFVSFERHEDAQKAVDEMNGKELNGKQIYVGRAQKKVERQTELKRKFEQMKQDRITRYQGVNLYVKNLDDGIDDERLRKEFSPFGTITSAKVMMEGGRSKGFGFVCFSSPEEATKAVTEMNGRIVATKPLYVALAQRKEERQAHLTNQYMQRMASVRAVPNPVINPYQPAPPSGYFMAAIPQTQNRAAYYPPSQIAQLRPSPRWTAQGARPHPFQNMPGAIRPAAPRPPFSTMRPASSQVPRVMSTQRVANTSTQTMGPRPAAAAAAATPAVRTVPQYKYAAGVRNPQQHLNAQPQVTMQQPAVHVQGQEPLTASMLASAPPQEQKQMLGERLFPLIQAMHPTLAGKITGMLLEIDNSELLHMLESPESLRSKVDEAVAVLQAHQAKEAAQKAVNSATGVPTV
# Chain of Cytochrome P450 2C19 (P33261 whole entry): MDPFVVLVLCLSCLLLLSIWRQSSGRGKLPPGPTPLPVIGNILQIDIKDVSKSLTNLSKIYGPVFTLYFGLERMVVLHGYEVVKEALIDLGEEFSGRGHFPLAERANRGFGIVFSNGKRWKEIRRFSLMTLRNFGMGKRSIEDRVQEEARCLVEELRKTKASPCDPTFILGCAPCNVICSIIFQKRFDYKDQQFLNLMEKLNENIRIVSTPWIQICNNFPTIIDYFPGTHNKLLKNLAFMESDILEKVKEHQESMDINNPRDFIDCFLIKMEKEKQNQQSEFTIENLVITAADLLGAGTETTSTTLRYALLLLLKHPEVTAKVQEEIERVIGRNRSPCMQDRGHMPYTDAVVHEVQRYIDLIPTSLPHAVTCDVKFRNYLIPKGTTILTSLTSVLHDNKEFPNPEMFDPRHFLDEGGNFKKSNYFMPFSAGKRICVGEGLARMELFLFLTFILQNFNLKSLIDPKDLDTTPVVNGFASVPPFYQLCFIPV
smiles,measurement,setting,value
O=C(CN1C(=O)NC2(CCCc3ccccc32)C1=O)N1CCc2ccccc2C1 (stereo unspecified),IC50,[1],13.5 µM (active)
CCn1c(Cc2ccccc2)nnc1SCC(=O)NC(C)(C)C,AC50,Cytochrome P450 2C19,14.1 µM (inconclusive)
same,AC50,Cytochrome P450 2C9,12.6 µM (inconclusive)
CCCCCC1CCC(C(=O)NN=C(S)NCC)CC1 (stereo unspecified),AC50,Cytochrome P450 2D6,15.8 µM (inconclusive)
same,AC50,Cytochrome P450 2C9,1.78 µM (inconclusive)
same,AC50,Cytochrome P450 1A2,12.6 µM (inconclusive)
O=C(C[n+]1cccc2ccccc21)c1ccc(Br)cc1,IC50,[1],13.2 µM (active)
CN(Cc1ccccc1)S(=O)(=O)c1ccc(NC(=S)NC(=O)C(C)(C)C)cc1,IC50,[2],> 66 µM (inactive)
same,IC50,[3],> 66 µM (inactive)
COc1ccc(CNc2nc(-c3cccc(C#N)c3)nc3ccccc23)c(OC)c1,AC50,Cytochrome P450 2D6,3.98 µM (inconclusive)
same,AC50,Cytochrome P450 2C19,1.58 µM (inconclusive)
same,AC50,Cytochrome P450 2C9,1 µM (inconclusive)
O=C1CN=C(Nc2ccc(Cl)cc2)N1c1ccccc1,AC50,Cytochrome P450 3A4,14.1 µM (inconclusive)
same,AC50,Cytochrome P450 2D6,20 µM (inconclusive)
same,AC50,Cytochrome P450 2C9,0.00562 µM (inconclusive)
same,AC50,Cytochrome P450 1A2,14.1 µM (inconclusive)
NC(=O)CN1CCN(c2nc(-c3ccc(F)cc3)cs2)CC1,AC50,Cytochrome P450 3A4,14.1 µM (inconclusive)
same,AC50,Cytochrome P450 2C9,6.31 µM (inconclusive)
CC(C)NCCCOc1ccc(Cl)cc1Br,AC50,Cytochrome P450 2C9,4.47 µM (inconclusive)
O=C(COc1ccccc1-c1ccccc1)NNC(=O)NC1CCCCC1,EC50,[4],> 120 µM (not active)
same,EC50,[5],> 120 µM (not active)
same,EC50,H4,> 120 µM (not active)
same,IC50,[1],15.8 µM (active)
COCCn1c(=O)c(-c2cc(F)cc(F)c2)nc2cnc(Oc3ccccc3)nc21,AC50,Cytochrome P450 3A4,20 µM (inconclusive)
same,AC50,Cytochrome P450 2C19,39.8 µM (inconclusive)
same,AC50,Cytochrome P450 2C9,20 µM (inconclusive)
C=CCSc1nc2c(c(=O)[nH]c(=O)n2C)n1C(C)C,IC50,[2],> 66 µM (inactive)
same,IC50,[3],> 66 µM (inactive)
O=C(Nc1cccc([N+](=O)[O-])c1)NC1CCCCCCC1,IC50,Fatty acid synthase [6],15.2 µM (active)
same,IC50,Fatty acid synthase [7],14.8 µM (active)
O=C(NC(=S)N1C[C@H]2C[C@H](C1)c1cccc(=O)n1C2)c1ccc(Cl)cc1,IC50,[2],> 66 µM (inactive)
same,IC50,[3],> 66 µM (inactive)
COc1cc(N(C)C)c([N+](=O)[O-])cc1C(=O)NC(C)CNc1ccc([N+](=O)[O-])cc1Cl (stereo unspecified),IC50,Fatty acid synthase [6],5.79 µM (active)
same,IC50,Fatty acid synthase [7],6.26 µM (active)
CCC(=O)Nc1ccc(Cl)c(NC(=S)NC(=O)COc2ccccc2)c1,IC50,[2],> 66 µM (inactive)
same,IC50,[3],> 66 µM (inactive)
CSCC[C@H](NC(=O)c1ccc(Cl)c([N+](=O)[O-])c1)c1nc2ccccc2[nH]1,IC50,Fatty acid synthase [6],6.14 µM (active)
same,IC50,Fatty acid synthase [7],11.1 µM (active)
COC(=O)c1cc(OC)c(OC)cc1NC(=O)CSc1ccc(C)cc1,AC50,Cytochrome P450 2C9,7.94 µM (inconclusive)
COc1cccc(NC(=O)CCC(=O)Nc2ccc3nc(N4CCOCC4)cc(C)c3c2)c1,EC50,[4],> 120 µM (not active)
same,EC50,[5],> 120 µM (not active)
same,EC50,H4,> 120 µM (not active)
Cc1cc(C)c[n+](-c2[n-]c(=O)sc2C=NNC(=O)c2cccnc2)c1,IC50,[2],> 66 µM (inactive)
same,IC50,[3],59.7 µM (inactive)
CN(Cc1ccc(Cl)cc1)C(=O)COC(=O)CSc1ccc([N+](=O)[O-])cc1,IC50,[2],> 66 µM (inactive)
same,IC50,[3],> 66 µM (inactive)
CC1CCCCC1NC(=O)Cn1nnc(-c2ccc(Cl)cc2)n1 (stereo unspecified),IC50,[1],6.61 µM (active)
CC(C)c1ccc(CSc2ccc(S(=O)(=O)N3CCOCC3)cn2)cc1,IC50,Fatty acid synthase [6],7.91 µM (active)
same,IC50,Fatty acid synthase [7],5.98 µM (active)
CCNc1ncc2nc(-c3cccs3)c(=O)n(CCC#N)c2n1,AC50,Cytochrome P450 2C9,12.6 µM (inconclusive)
NC(=S)Nc1ccc(S(=O)(=O)c2ccc(NC(N)=S)cc2)cc1,IC50,[2],> 66 µM (inactive)
same,IC50,[3],> 66 µM (inactive)
CCOc1cc(N2CCOCC2)c(OCC)cc1NC(=O)Cc1ccccc1,IC50,[1],13.2 µM (active)
CCc1ccc(C(=O)COC(=O)c2cc([N+](=O)[O-])ccc2N2CCOCC2)cc1,IC50,Fatty acid synthase [6],2.16 µM (active)
same,IC50,Fatty acid synthase [7],1.75 µM (active)
CC1=C(C(=O)N2CCCCCC2)C2(CCC(C)CC2)OC1=O (stereo unspecified),AC50,Cytochrome P450 2C9,28.2 µM (inconclusive)
same,AC50,Cytochrome P450 1A2,0.0158 µM (inconclusive)
CC(C)c1ccc(S(=O)(=O)N2CCC(C(=O)NCC3(N(C)C)CCCCC3)CC2)cc1,IC50,[1],12.6 µM (active)
CC(=O)OCCOCn1cnn2c(=O)c(Br)c(C)nc12,IC50,[1],13.5 µM (active)
O=C1C=CC2OC(c3ccccc3)C(O)C2O1 (stereo unspecified),GI50,P388/ADR,1.16 µM (inactive)
same,GI50,SN12K1,4.6 µM (inactive)
same,GI50,P388,1.56 µM (inactive)
CSCSCC(CO)NC(=O)/C=C\c1c(C)[nH]c(=O)[nH]c1=O (stereo unspecified),GI50,P388/ADR,57.4 µM (inactive)
same,GI50,SN12K1,11.1 µM (inactive)
same,GI50,P388,23.1 µM (inactive)
COC(=O)[C@@H](O)[C@](O)(CCC(C)C)C(=O)O[C@@H]1C(OC)=C[C@]23CCCN2CCc2cc4c(cc2[C@H]13)OCO4,GI50,P388/ADR,2.29 µM (inactive)
same,GI50,SN12K1,0.682 µM (active)
same,GI50,P388,0.247 µM (active)
N/C(=N\O)N/N=C\c1ccccc1O,GI50,P388/ADR,1.54 µM (inactive)
same,GI50,SN12K1,3.91 µM (inactive)
same,GI50,P388,1.66 µM (inactive)
CC(=O)OC1C=C(C=O)C(O)(C=O)C2(C)CCCC(C)(C)C12 (stereo unspecified),GI50,P388/ADR,0.322 µM (active)
same,GI50,SN12K1,1.36 µM (inactive)
same,GI50,P388,0.142 µM (active)
O=C1C(Br)=CC2(C=C1Br)CCNC1=C2C2=NCCc3c[nH]c(c32)C1=O,GI50,P388/ADR,0.0162 µM (active)
same,GI50,SN12K1,0.168 µM (active)
same,GI50,P388,0.0146 µM (active)
CCCCCCCCC1=CCC(CN(C)C)C1=O (stereo unspecified),GI50,P388/ADR,2.92 µM (inactive)
same,GI50,SN12K1,17.6 µM (inactive)
same,GI50,P388,4.29 µM (inactive)
Cc1ccc(S(=O)(=O)N(C)C[C@@H]2Oc3c(NC(=O)c4ccc(-c5nccs5)cc4)cccc3C(=O)N([C@@H](C)CO)C[C@@H]2C)cc1,AC50,Paired box protein Pax-8,18.3 µM (active)
CCSc1nc(COC(=O)NC)c(COC(=O)NC)n1C,GI50,P388/ADR,> 100 µM (inactive)
same,GI50,SN12K1,> 100 µM (inactive)
same,GI50,P388,67.6 µM (inactive)
CCN(CCCl)CCNc1c2ccccc2nc2ccc(OC)cc12,GI50,P388/ADR,0.29 µM (active)
same,GI50,SN12K1,0.647 µM (active)
same,GI50,P388,0.0757 µM (active)
CC(=O)N(C)c1ccc(Nc2cc(C)nc3ccc4nc[nH]c4c23)cc1 [ACODAZOLE HYDROCHLORIDE],GI50,P388/ADR,37 µM (inactive)
same,GI50,SN12K1,4.9 µM (inactive)
same,GI50,P388,4.5 µM (inactive)
CNC(=O)CSP(=S)(OC)OC [DIMETHOATE],IC50,[2],> 66 µM (inactive)
same,IC50,[3],> 66 µM (inactive)
CC(C)=CCc1c(O)ccc2ccc(=O)oc12 [OSTHENOL],GI50,P388/ADR,50 µM (inactive)
same,GI50,SN12K1,59.7 µM (inactive)
same,GI50,P388,42.7 µM (inactive)
NNCCc1ccccc1 [PHENELZINE],AC50,Cytochrome P450 2C9,158 nM (inconclusive) and 10 µM (inconclusive)
